Assay type in all cases: in vivo
Assay [1] has as its system Echinochloa crus-galli (ECHCG). Kind of assay: Example B post-emergence herbicidal test, glasshouse. Particulars: 312 h, rate 250 g/ha, evaluated after 13 days, read-out: Post-Emergence Activity ECHGG (100=total damage to plant; 0=no damage to plant). The method, then: (§1) Seeds of a variety of test species were sown in standard soil in pots. After cultivation for one day (pre-emergence) or after 8 days cultivation (post-emergence) under controlled conditions in a glasshouse (at 24/16° C., day/night; 14 hours light; 65% humidity), the plants were sprayed with an aqueous spray solution derived from the formulation of the technical active ingredient in acetone/water (50:50) solution containing 0.5% Tween 20 (polyoxyethelyene sorbitan monolaurate, CAS RN 9005-64-5). The test plants were then grown in a glasshouse under controlled conditions in a glasshouse (at 24/16° C., day/night; 14 hours light; 65% humidity) and watered twice daily. After 13 days for pre and post-emergence, the test was evaluated (100=total damage to plant; 0=no damage to plant). Test Plants: Alopecurus myosuroides (ALOMY), Avena fatua (AVEFA), Setaria faberi (SETFA), Echinochloa crus-galli (ECHCG), Solanum nigrum (SOLNI) and Amaranthus retoflexus (AMARE)

The test system of assay [2] is Avena fatua (AVEFA). Described as above. Particulars: 312 h, rate 250 g/ha, evaluated after 13 days, read-out: Post-Emergence Activity AVEFA (100=total damage to plant; 0=no damage to plant). The method, then:
as §1

The subject of assay [3] is Alopecurus myosuroides (ALOMY). Described as above. The conditions noted are these: 312 h, rate 250 g/ha, evaluated after 13 days, read-out: Post-Emergence Activity ALOMY (100=total damage to plant; 0=no damage to plant). How it is done: as §1
The subject of assay [4] is Setaria faberi (SETFA). The assay is described as above. The conditions noted are these: 312 h, rate 250 g/ha, evaluated after 13 days, read-out: Post-Emergence Activity SEFTA (100=total damage to plant; 0=no damage to plant). How it is done: as §1
The subject of assay [5] is Amaranthus retoflexus (AMARE). The assay is described as above. Particulars: Amaranthus retroflexus, 312 h, rate 250 g/ha, evaluated after 13 days, read-out: Post-Emergence Activity AMARE (100=total damage to plant; 0=no damage to plant). The method, then:
as §1

In assay [6] the test system is Echinochloa crus-galli (ECHCG). The experiment in a line: Example B pre-emergence herbicidal test, glasshouse. The conditions noted are these: Echinochloa crus-galli, 312 h, rate 250 g/ha, evaluated after 13 days, 100=total damage to plant, 0=no damage to plant, read-out: Pre-Emergence Activity ECHGG. The method, then: as §1
In assay [7] the test system is Avena fatua (AVEFA). Described as above. The conditions noted are these: 312 h, rate 250 g/ha, evaluated after 13 days, 100=total damage to plant, 0=no damage to plant. The method, then: as §1
Assay [8] concerns Alopecurus myosuroides (ALOMY). The assay is described as above. The conditions noted are these: 312 h, rate 250 g/ha, evaluated after 13 days, 100=total damage to plant, 0=no damage to plant. The method, then:
as §1

Assay [9] deals with Setaria faberi (SETFA). The assay is described as above. The conditions noted are these: Setaria faberi, 312 h, rate 250 g/ha, evaluated after 13 days, 100=total damage to plant, 0=no damage to plant, read-out: Pre-Emergence Activity SEFTA. How it is done:
as §1

Assay [10] has as its system Amaranthus retoflexus (AMARE). The description is as above. The conditions noted are these: Amaranthus retroflexus, 312 h, rate 250 g/ha, evaluated after 13 days, 100=total damage to plant, 0=no damage to plant. How it is done:
as §1

As to `CCc1sc(-c2c(C)cc(Cl)cc2F)nc1C1C(=O)C(C)(C)OC(C)(C)C1=O` [Compound T64], the pest or weed control at 250 g/ha came to 100% in assay [1]; 60% in the assay with Avena fatua (AVEFA) [2]; 20% in assay [3]; 100% in the assay with Setaria faberi (SETFA) [4]; 0% in assay [5]; 70% in assay [6]. Moreover, the pest or weed control at 250 g/ha with Avena fatua (AVEFA) [7] worked out at 0%; in assay [8] it was 0%; in the assay with Setaria faberi (SETFA) [9], 100%; in assay [10], 0%.
As to `CCc1sc(-c2ccc(Cl)cc2Cl)nc1C1C(=O)C(C)(C)OC(C)(C)C1=O` [Compound T53], the pest or weed control at 250 g/ha in [1] amounted to 100%; with Avena fatua (AVEFA) [2] it was 90%; in assay [3], 90%; with Setaria faberi (SETFA) [4], 100%; in [5] it was 0%; in assay [6], 60%. For the same compound, the pest or weed control at 250 g/ha in the assay on Avena fatua (AVEFA) [7] was 0%; in assay [8] it was 30%; in the assay with Setaria faberi (SETFA) [9] it was 90%; in [10], 0%.
For `CCc1sc(-c2ccc(Cl)cc2C)nc1C1C(=O)C(C)(C)OC(C)(C)C1=O` [Compound T61], the pest or weed control at 250 g/ha in assay [1] worked out at 100%; in the assay with Avena fatua (AVEFA) [2], 70%; in assay [3] it was 90%; with Setaria faberi (SETFA) [4], 90%; in assay [5], 0%; in assay [6] it was 100%. For the same compound, the pest or weed control at 250 g/ha with Avena fatua (AVEFA) [7] is 0%; in assay [8], 80%; in the assay with Setaria faberi (SETFA) [9] it was 100%; in [10], 0%.
In the case of `CCc1sc(-c2ccc(Br)cc2C)nc1C1C(=O)C(C)(C)OC(C)(C)C1=O` [Compound T57], the pest or weed control at 250 g/ha in assay [1] turned out to be 100%; with Avena fatua (AVEFA) [2] it was 90%; in [3] it was 100%; with Setaria faberi (SETFA) [4], 100%; in assay [5], 0%; in assay [6] it was 50%. In addition, the pest or weed control at 250 g/ha with Avena fatua (AVEFA) [7] was determined as 30%; in [8] it was 20%; in the assay with Setaria faberi (SETFA) [9] it was 90%; in assay [10], 0%.
As for `CCc1sc(-c2ccc(SC)cc2)nc1C1C(=O)C(C)(C)OC(C)(C)C1=O` [Compound T69], the pest or weed control at 250 g/ha in assay [1] stood at 100%; in the assay on Avena fatua (AVEFA) [2], 40%; in [3], 60%; in the assay with Setaria faberi (SETFA) [4], 90%; in assay [5] it was 0%; in assay [6], 20%. Also, the pest or weed control at 250 g/ha in the assay with Avena fatua (AVEFA) [7] came out at 0%; in assay [8] it was 0%; with Setaria faberi (SETFA) [9], 20%; in assay [10], 0%.
With `Cc1sc(-c2ccc(Br)cn2)nc1C1C(=O)C(C)(C)OC(C)(C)C1=O` [Compound T56], the pest or weed control at 250 g/ha in [1] is 80%; in the assay on Avena fatua (AVEFA) [2], 20%; in assay [3], 30%; in the assay on Setaria faberi (SETFA) [4], 90%; in [5], 0%; in [6], 10%. For the same compound, the pest or weed control at 250 g/ha with Avena fatua (AVEFA) [7] amounted to 0%; in assay [8], 0%; in the assay with Setaria faberi (SETFA) [9], 20%; in assay [10] it was 0%.
`Cc1cc(Br)ccc1-c1nc(C2=C(OC(=O)C3CC3)C(C)(C)OC(C)(C)C2=O)c(C)s1` [Compound P7]: the pest or weed control at 250 g/ha came to 100% in assay [1]; 80% with Avena fatua (AVEFA) [2]; 80% in assay [3]; 100% in the assay on Setaria faberi (SETFA) [4]; 0% in assay [5]; 80% in assay [6]. In addition, the pest or weed control at 250 g/ha in the assay with Avena fatua (AVEFA) [7] amounted to 0%; in [8], 70%; in the assay on Setaria faberi (SETFA) [9], 100%; in assay [10], 0%.
`Cc1sc(-c2ccc(C(F)(F)F)cc2)cc1C1C(=O)C(C)(C)C(=O)C(C)(C)C1=O` [Compound T27]: the pest or weed control at 250 g/ha in assay [1] was determined as 30%; with Avena fatua (AVEFA) [2], 0%; in assay [3] it was 20%; in the assay on Setaria faberi (SETFA) [4], 50%; in [5] it was 30%.
Regarding `Cc1sc(-c2ccc(Cl)cc2)cc1C1C(=O)C(C)(C)C(=O)C(C)(C)C1=O` [Compound T5], the pest or weed control at 250 g/ha worked out at 70% in assay [1]; 0% in the assay with Avena fatua (AVEFA) [2]; 40% in [3]; 50% in the assay with Setaria faberi (SETFA) [4]; 0% in assay [5].
As for `Cc1nc(-c2ccc(Cl)cc2)sc1C1C(=O)C(C)(C)OC(C)(C)C1=O` [Compound T66], the pest or weed control at 250 g/ha was found to be 90% in assay [1]; 40% in the assay with Avena fatua (AVEFA) [2]; 70% in assay [3]; 80% with Setaria faberi (SETFA) [4]; 0% in assay [5].
Taken in the same sequence, the figures for `CSc1ccc(-c2nc(C3C(=O)C(C)(C)OC(C)(C)C3=O)c(C)s2)cc1` [Compound T67] were 90%, 0%, 0%, 70% and 0%.
`Cc1sc(-c2ccc(Cl)cc2Cl)nc1C1C(=O)C(C)(C)C(=O)C(C)(C)C1=O` [Compound T45]: the pest or weed control at 250 g/ha in [1] was 70%; in the assay on Avena fatua (AVEFA) [2], 0%; in assay [3], 30%; in the assay with Setaria faberi (SETFA) [4], 70%; in assay [5], 0%.
For the compound `CCc1sc(-c2cc(F)c(Cl)cc2Cl)nc1C1C(=O)C(C)(C)OC(C)(C)C1=O` [Compound T65], the pest or weed control at 250 g/ha stood at 100% in assay [1]; 70% in the assay with Avena fatua (AVEFA) [2]; 90% in [3]; 100% in the assay with Setaria faberi (SETFA) [4]; 0% in assay [5].
For `Cc1cc(Cl)ccc1-c1nc(C2C(=O)C(C)(C)C(=O)C(C)(C)C2=O)c(C)s1` [Compound T44], the pest or weed control at 250 g/ha stood at 30% in assay [6]; 0% in the assay on Avena fatua (AVEFA) [7]; 0% in [8]; 0% with Setaria faberi (SETFA) [9]; 0% in assay [10].
Regarding `Cc1sc(-c2ccc(F)cc2)cc1C1C(=O)C(C)(C)C(=O)C(C)(C)C1=O` [Compound T25], the pest or weed control at 250 g/ha in [1] turned out to be 20%; with Avena fatua (AVEFA) [2], 0%; in assay [3] it was 0%; with Setaria faberi (SETFA) [4], 20%; in [5] it was 0%.

(Values after patent publication US8956999B2, “Herbicides” (Syngenta Limited, priority 2007, dated 2015).)
